{"source": "paper PMC10076467", "about": "(EJNMMI Research, 2023)", "key": {"σ1 receptors": {"target": "T1, σ1 receptors (Rattus norvegicus, UniProt Q9R0C9)", "T1 construct": "from tissue; host or cells: brain of living male rats (PET imaging)", "T1 sequence (Q9R0C9 whole entry)": "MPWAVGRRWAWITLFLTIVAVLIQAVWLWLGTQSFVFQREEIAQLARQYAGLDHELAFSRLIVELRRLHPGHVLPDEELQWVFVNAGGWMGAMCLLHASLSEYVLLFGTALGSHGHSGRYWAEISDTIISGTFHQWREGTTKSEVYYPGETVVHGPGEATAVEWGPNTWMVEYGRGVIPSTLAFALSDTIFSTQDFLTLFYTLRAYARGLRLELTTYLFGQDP", "experiment": "ED50 for pre-blocking of ^18F-FTC146 uptake in rat whole brain (PET)", "assay_type": "in vivo", "settings": "radioligand ^18F-FTC146, AUC 20-120 min", "protocol": "(§1) For radioligand injection, a polyethylene catheter (PE 10) was inserted into the penile vein of a male rat and then secured with tissue adhesive and tape. For dynamic scanning, the rats were secured with tape in the scanner and kept under 1.5% isoflurane anesthesia via a nose cone. Body temperature was monitored with a rectal probe. All PET scans were performed on a microPET Focus 220 scanner (Siemens Medical Solutions) (7,8). Data were acquired in listmode and reconstructed with Fourier rebinning + 2D filtered backprojection. A transmission scan was acquired before radioligand injection for attenuation correction. Dynamic scanning began at the time of a one-minute intravenous bolus injection of the radioligand under study (55 ± 19 MBq; volume 0.2 to 1.0 mL). The injected mass dose was 3 ± 1 nmol/kg. Challenge agents were administered intravenously 10 minutes before the radioligand for pre-blocking studies or 10 minutes after the radioligand for displacement studies. Tomographic images were analyzed with pixel-wise modeling computer software (PMOD 2.6; PMOD Group). Regions-of-interest in the brain were delineated, and time-activity curves calculated as SUV versus time.\nPre-blocking and displacement experiments were performed to assess radioligand target engagement and radioligand selectivity in vivo. Normally 4 doses of 0.01 mg/kg, 0.05 mg/kg, 0.25 mg/kg, and 1.25 mg/kg were used for preblocking experiments, and only 2 doses of 0.25 mg/kg and 1.25 mg/kg were used for displacement experiments. […] […] […] […] Where data permitted, the dose-response curves were fitted with GraphPad Prism software (version 8.1.1; GraphPad) to estimate the ED50 values. A dummy value of 100 pmol per kg body weight was used for zero concentration of the challenge agent in the construction of these dose-response curves. Numerical data are expressed as mean ± S.D. for n>2, or as mean and range for n = 2."}, "[1]": {"settings": "cited from earlier work"}, "[2]": {"settings": "cited from earlier work", "remark": "listed apart in the source"}, "GluN2B receptors [3]": {"target": "T2, GluN2B receptors (Rattus norvegicus, UniProt P35439+Q00960)", "T2 construct": "from tissue; host or cells: brain of living male rats (PET imaging)", "T2 sequence (Q00960 27-1482, other chains not shown)": "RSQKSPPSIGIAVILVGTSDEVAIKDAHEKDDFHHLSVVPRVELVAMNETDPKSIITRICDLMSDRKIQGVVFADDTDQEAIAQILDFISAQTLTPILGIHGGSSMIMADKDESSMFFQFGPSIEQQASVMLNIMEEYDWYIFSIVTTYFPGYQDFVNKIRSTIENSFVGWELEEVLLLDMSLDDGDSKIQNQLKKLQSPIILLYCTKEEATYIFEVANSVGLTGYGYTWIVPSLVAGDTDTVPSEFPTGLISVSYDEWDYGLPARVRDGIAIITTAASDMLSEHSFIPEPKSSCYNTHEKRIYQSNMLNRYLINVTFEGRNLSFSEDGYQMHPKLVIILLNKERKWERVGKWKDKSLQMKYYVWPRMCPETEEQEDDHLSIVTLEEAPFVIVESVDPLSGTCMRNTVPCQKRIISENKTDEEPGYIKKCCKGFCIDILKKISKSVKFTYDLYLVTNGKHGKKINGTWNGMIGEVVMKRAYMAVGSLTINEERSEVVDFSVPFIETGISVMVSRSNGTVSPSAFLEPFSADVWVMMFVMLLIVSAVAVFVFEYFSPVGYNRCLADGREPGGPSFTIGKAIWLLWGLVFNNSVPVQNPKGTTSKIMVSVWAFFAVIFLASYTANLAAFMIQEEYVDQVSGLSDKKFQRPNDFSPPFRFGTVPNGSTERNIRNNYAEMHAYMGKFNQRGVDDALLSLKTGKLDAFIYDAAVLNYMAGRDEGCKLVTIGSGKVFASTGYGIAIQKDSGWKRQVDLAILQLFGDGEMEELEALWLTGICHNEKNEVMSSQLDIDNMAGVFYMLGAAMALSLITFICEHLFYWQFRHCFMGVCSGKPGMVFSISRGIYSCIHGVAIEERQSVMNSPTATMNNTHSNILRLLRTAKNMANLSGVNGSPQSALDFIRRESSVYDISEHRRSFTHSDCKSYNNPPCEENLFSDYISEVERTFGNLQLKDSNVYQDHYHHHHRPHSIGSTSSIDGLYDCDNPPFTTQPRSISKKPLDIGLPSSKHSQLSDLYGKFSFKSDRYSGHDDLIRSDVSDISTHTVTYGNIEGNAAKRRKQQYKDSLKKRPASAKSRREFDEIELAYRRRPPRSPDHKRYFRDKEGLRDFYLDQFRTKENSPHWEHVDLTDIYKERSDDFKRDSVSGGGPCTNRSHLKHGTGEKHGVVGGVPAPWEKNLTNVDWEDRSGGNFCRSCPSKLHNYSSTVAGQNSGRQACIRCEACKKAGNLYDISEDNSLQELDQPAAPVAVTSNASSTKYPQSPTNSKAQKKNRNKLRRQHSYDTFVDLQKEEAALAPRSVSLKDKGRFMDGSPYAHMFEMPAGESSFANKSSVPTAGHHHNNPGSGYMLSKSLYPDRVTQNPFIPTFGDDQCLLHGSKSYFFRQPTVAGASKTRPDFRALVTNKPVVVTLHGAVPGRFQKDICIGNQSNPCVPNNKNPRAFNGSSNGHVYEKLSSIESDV", "set-up": "method as in PMID 31924728", "settings": "pre-blocking, radioligand ^11C-(S)-NR2B-SMe; cited from earlier work"}, "σ2 receptor": {"system": "σ2 receptor", "settings": "at 10 µmol; cited from earlier work"}, "GluN2B": {"target": "T3, GluN2B (Homo sapiens, UniProt Q05586+Q13224)", "T3 construct": "expressed in transfected cells; host or cells: transiently transfected mouse fibroblast cells (membrane homogenate)", "T3 sequence (Q13224 27-1484, species assumed, other chains not shown)": "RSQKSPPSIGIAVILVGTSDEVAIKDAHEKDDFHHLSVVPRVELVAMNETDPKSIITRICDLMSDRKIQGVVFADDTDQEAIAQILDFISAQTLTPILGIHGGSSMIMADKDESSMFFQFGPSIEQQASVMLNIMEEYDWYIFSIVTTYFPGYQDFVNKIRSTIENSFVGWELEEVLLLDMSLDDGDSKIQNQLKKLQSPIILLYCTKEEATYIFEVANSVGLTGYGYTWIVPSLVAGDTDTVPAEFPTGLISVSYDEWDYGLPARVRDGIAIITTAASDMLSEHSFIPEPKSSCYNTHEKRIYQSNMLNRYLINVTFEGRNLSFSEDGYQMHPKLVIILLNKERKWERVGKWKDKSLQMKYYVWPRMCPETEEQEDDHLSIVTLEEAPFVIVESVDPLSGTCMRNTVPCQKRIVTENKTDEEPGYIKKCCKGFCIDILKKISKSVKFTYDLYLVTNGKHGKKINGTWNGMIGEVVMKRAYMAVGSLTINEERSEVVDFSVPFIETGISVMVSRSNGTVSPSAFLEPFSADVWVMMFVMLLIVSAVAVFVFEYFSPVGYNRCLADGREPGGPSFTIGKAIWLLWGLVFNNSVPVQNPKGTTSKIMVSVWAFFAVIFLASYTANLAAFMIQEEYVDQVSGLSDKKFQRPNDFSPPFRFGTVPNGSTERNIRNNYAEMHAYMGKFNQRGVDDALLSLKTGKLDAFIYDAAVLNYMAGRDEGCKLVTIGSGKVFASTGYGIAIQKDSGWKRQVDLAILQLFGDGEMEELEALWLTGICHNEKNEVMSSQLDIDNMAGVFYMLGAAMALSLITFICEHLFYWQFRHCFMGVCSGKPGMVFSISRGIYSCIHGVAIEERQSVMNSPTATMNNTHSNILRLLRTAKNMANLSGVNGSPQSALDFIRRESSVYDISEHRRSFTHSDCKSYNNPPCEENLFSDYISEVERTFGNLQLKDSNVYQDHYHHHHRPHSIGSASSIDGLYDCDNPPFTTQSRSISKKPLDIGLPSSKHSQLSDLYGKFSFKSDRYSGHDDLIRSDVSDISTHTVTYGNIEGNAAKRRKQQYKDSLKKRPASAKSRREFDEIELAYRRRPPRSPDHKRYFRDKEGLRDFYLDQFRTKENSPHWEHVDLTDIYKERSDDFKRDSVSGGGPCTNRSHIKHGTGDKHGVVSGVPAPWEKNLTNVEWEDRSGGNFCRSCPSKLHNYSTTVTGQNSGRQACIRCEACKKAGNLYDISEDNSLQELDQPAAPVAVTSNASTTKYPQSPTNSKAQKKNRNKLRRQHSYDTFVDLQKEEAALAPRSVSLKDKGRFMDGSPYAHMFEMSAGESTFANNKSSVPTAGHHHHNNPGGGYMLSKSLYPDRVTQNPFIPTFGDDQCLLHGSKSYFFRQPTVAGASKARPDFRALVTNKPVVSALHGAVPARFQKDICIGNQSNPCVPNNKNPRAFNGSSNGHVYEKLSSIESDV", "set-up": "method as in PMID 31924728", "settings": "cited from earlier work"}, "[4]": {"settings": "n = 3", "protocol": "Human Plasma Free Fraction. Plasma free fraction (fp) was measured as described previously (6). […] If necessary, samples were left to decay to within the optimal radioactivity range for accurate γ-counter measurement."}, "[5]": {"experiment": "Radiochemical stability of formulated radioligand", "assay_type": "physicochemical", "description": "However, the fraction collected from HPLC contains 0.1% TFA. […] Protection with ascorbic acid was therefore used immediately after HPLC radioligand purification to maintain weakly acidic and reducing conditions."}, "GluN2B receptors [6]": {"target": "T2, GluN2B receptors", "experiment": "PET displacement / pre-blocking of ^11C-NR2B-Me radioligands with Ro-25-6981, Lassen plots", "assay_type": "in vivo", "settings": "rat; Ro-25-6981 0.25 mg/kg i.v. 10 min before radioligand", "protocol": "as §1, with “For dynamic scanning, the rats were secured with tape in the scanner and kept under 1.5% isoflurane anesthesia via a nose cone.” left out\nPre-blocking and displacement experiments were performed to assess radioligand target engagement and radioligand selectivity in vivo. […] Areas-under the curve (AUCs) from time-activity curves between 20 and 90 minutes were calculated for each radioligand. AUCs obtained from the same production of radioligand were scaled to the value (or mean value) for the baseline experiment to give relative values (relative AUC20–90 min). […] Where data permitted, the dose-response curves were fitted with GraphPad Prism software (version 8.1.1; GraphPad) to estimate the ED50 values. A dummy value of 100 pmol per kg body weight was used for zero concentration of the challenge agent in the construction of these dose-response curves. Numerical data are expressed as mean ± S.D. for n>2, or as mean and range for n = 2."}, "[7]": {"protocol": "For Brain. The brain (1.7 g) was homogenized in twice its volume of cold saline. […] An aliquot (450 µL) was then placed in acetonitrile (720 µL) along with carrier NR2B-Me (5 µg) and mixed well. Water (100 µL) was then added, mixed well, measured for radioactivity, and centrifuged at 10,000 g for one minute. The supernatant was analyzed via HPLC. The precipitate was measured for radioactivity to determine the recovery of radioactivity into the supernatant that had been injected onto HPLC.\nFor Whole Blood. […] The sample was mixed well and incubated at 37 °C for one hour. Water (300 µL) was added to lyse open all cells. An aliquot (450 µL) was then removed to a new vial, and acetonitrile (720 µL) was added. The mixture was mixed well, measured for radioactivity, and centrifuged at 10,000 g for one minute. The supernatant was analyzed via HPLC as described for brain.\nFor Plasma. Plasma was separated from blood cells. […] The mixture was measured for radioactivity. An aliquot (450 µL) was then placed in acetonitrile (720 µL) along with carrier NR2B-Me (5 µg) and mixed well. Water (100 µL) was then added, mixed well, measured for radioactivity, and centrifuged at 10,000 g for one minute. The supernatant was analyzed with HPLC as described for brain. The precipitate was measured for radioactivity to determine radioactivity recovery into the supernatant that had been injected onto HPLC.\n(§2) The SUV due to radioligand or radiometabolite only was calculated by multiplying the total SUV of the tissue by the fraction of the radioligand or radiometabolite measured with HPLC (Supplementary Table S4)."}, "[8]": {"settings": "room temperature, at least 30 min", "description": "Subsequent processing and analysis were as described for rat ex vivo experiments in the main text."}, "[9]": {"experiment": "LogD7.4 measurement (1-octanol / sodium phosphate buffer)", "assay_type": "physicochemical", "settings": "1-octanol / sodium phosphate buffer pH 7.4, room temperature", "method": "The radiochemical purity of the radioligand was measured via HPLC. […] Aliquots (1 mL) were distributed to each of eight borosilicate disposable culture tubes (13 × 100 mm). Six tubes were extracted with buffer pre-treated 1-octanol (1 mL) by vortexing for one minute and then centrifuged for one minute. The organic and aqueous phases were separated. Samples of organic phase (50 µL) and aqueous phase (50 µL) were taken and separately measured for radioactivity. The remaining two tubes containing radioactivity in buffer were analyzed with HPLC to check for any decrease in radiochemical purity over the time-span of the experiment. […] LogD was calculated as log[(cpm/mL for 1-octanol phase)/(cpm/mL for aqueous phase)] using Pallas for Windows software (CompuDrug Inc.)."}, "[10]": {"protocol": "Rats were anesthetized with 1.5% isoflurane in oxygen. […] The rats were then immediately sacrificed by decapitation, and their brains and myocardial tissues were excised.\nPlasma was separated from blood cells, and a sample (50 µL) was measured for radioactivity. An aliquot (450 µL) was placed in acetonitrile (720 µL) along with carrier NR2B-Me (5 µg) and mixed well. Water (100 µL) was added, mixed well, measured for radioactivity, and centrifuged at 10,000 g for one minute. The supernatant was analyzed with radio-HPLC and the precipitate measured for radioactivity, as described for brain.\nas §2", "remark": "listed apart in the source"}, "[11]": {"experiment": "pKa measurement (cyclohexane / sodium phosphate buffers)", "assay_type": "physicochemical", "settings": "distribution between cyclohexane and sodium phosphate buffers"}, "[12]": {"settings": "rat, ex vivo 30 min after intravenous injection"}}, "note": "“And” between values parts separate entries of the source, which are not always exact repeats. Equal values may be shown once.", "data": [{"smiles": "CSc1ccc2c(c1)CCN(CCCCc1ccc(C)cc1)CC2O", "note": "(racemic) [NR2B-SMe, (R,S)-7-thiomethoxy-3-(4-(4-methyl-phenyl)butyl)-2,3,4,5-tetrahydro-1H-benzo[d]azepin-1-ol]", "values": [{"measurement": "ED50 in rat whole brain in vivo ^18F-FTC146", "setting": "σ1 receptors", "result": 1064, "unit": "nmol/kg"}, {"measurement": "pKa", "setting": "[1]", "result": 5.03}, {"measurement": "cLogD7.4", "setting": "[2]", "result": 3.41}, {"measurement": "ED50 in rat whole brain in vivo ^11C-(S)-NR2B-SMe", "setting": "GluN2B receptors [3]", "result": 9.5, "unit": "nmol/kg"}, {"measurement": "σ2 inhibition", "setting": "σ2 receptor", "result": 90, "unit": "%"}, {"measurement": "Ki", "setting": "GluN2B", "result": 2.2, "unit": "nM"}]}, {"smiles": "COc1ccc2c(c1)CCN(CCCCc1ccc([11CH3])cc1)CC2O", "note": "(racemic) [^11C-NR2B-Me]", "values": [{"measurement": "human plasma free fraction (fp)", "setting": "[4]", "result": "1.16% ± 0.14"}, {"measurement": "time stable in PBS (10 mM)", "setting": "[5]", "result": "at least 2.5 hours"}, {"measurement": "radioligand remaining in solution (no adsorption to glass test tubes)", "setting": "[5]; PBS 10 mM", "result": "98.1 ± 0.5", "unit": "%"}, {"measurement": "radioactivity in brain regions at 90 min as % of peak values after pre-block", "setting": "GluN2B receptors [6]", "result": "about 10%"}, {"measurement": "conversion into radiometabolite in brain homogenate", "setting": "[7]; rat brain homogenate", "result": "less than 0.5%"}, {"measurement": "In vitro stability, plasma", "setting": "[7]; rat plasma, 37 °C, 30 min", "result": 70.3, "unit": "%"}, {"measurement": "single less lipophilic radiometabolite detected in rat plasma in vitro", "setting": "[7]; rat plasma, 37 °C, 30 min", "result": "about 30%"}, {"measurement": "stability in human brain homogenate", "setting": "[8]", "result": 99.5, "unit": "%"}, {"measurement": "stability in human plasma", "setting": "[8]", "result": 100, "unit": "%"}, {"measurement": "logD7.4", "setting": "[9]", "result": 3.27}, {"measurement": "Ex vivo stability, brain (unchanged radioligand as % of radioactivity)", "setting": "[10]; rat brain, 30 min after intravenous injection", "result": "99.5% and > 99%"}, {"measurement": "Ex vivo stability, plasma (unchanged radioligand as % of radioactivity)", "setting": "[10]; rat plasma, 30 min after intravenous injection", "result": 46.2, "unit": "%"}, {"measurement": "Radioactivity conc., brain", "setting": "[10]; [12]", "result": 4.1, "unit": "SUV"}, {"measurement": "Radioactivity conc., plasma", "setting": "[10]; [12]", "result": 0.04, "unit": "SUV"}, {"measurement": "Radioactivity conc., whole blood", "setting": "[10]; [12]", "result": 0.300, "unit": "SUV"}, {"measurement": "Tissue to plasma radioactivity ratio, brain", "setting": "[10]; [12]", "result": 103}, {"measurement": "Tissue to plasma radioactivity ratio, plasma", "setting": "[10]; [12]", "result": 1.0}, {"measurement": "Tissue to plasma radioactivity ratio, whole blood", "setting": "[10]; [12]", "result": 7.5}, {"measurement": "pKa (apparent)", "setting": "[11]", "result": "5.04 ± 0.01"}]}]}
